Data published in patent publication US20240158446A1, “CYCLIC COMPOUND HAVING SELECTIVE INHIBITORY ACTION ON KRAS OVER HRAS AND NRAS” (CHUGAI SEIYAKU KABUSHIKI KAISHA, priority 2021, published 2024).
Where a SMILES comes first, the peptide text is derived from it. Bridges are numbered along the chain shown (N, C = ends). [ ]: non-standard residue; d: D form. The star is where a group is joined. hPhe(3-Cl-4-CF3) = N[C@@H](CCc1ccc(C(F)(F)F)c(Cl)c1)C(=O)O; NPrPhe(4-CF3) = CCCN[C@@H](Cc1ccc(C(F)(F)F)cc1)C(=O)O; NMeGly(cPent) = CN[C@H](C(=O)O)C1CCCC1; NEtLeu = CCN[C@@H](CC(C)C)C(=O)O; NMeChg = CN[C@H](C(=O)O)C1CCCCC1; NMeD = CN[C@@H](CC(=O)O)C(=O)O; NMeL = CN[C@@H](CC(C)C)C(=O)O; Morpholide = C1CN(*)CCO1; Piperidide = C1CCN(*)CC1; Ac4c = NC1(C(=O)O)CCC1; Sar = CNCC(=O)O

Tests used:
[1] = target: GDP-bound KRAS wild-type protein (Homo sapiens, UniProt P01116); test: Binding to KRAS by surface plasmon resonance (SPR), Single Cycle Kinetics; conditions: SPR, Single Cycle Kinetics, GDP-bound KRAS wild-type protein; read-out: KRAS KD
Chain of GDP-bound KRAS wild-type protein (P01116 whole entry): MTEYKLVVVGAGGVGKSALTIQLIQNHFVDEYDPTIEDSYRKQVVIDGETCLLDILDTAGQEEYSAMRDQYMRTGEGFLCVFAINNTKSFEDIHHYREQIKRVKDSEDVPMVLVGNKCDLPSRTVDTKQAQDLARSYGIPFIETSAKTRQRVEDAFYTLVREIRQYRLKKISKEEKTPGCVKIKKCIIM

[2] = target: GDP-bound NRAS wild-type protein (Homo sapiens, UniProt P01111); test: Binding to NRAS by surface plasmon resonance (SPR), Single Cycle Kinetics; conditions: ratio of KD for GDP-bound NRAS wild-type protein to KD for KRAS, SPR
Chain of GDP-bound NRAS wild-type protein (P01111 whole entry): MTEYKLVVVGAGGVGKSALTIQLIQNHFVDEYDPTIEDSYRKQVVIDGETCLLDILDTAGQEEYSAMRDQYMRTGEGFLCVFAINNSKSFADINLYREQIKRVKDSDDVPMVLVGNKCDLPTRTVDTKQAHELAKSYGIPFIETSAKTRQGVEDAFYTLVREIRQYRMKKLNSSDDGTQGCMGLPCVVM

[3] = target: GDP-bound HRAS wild-type protein (Homo sapiens, UniProt P01112); test: Binding to HRAS by surface plasmon resonance (SPR), Single Cycle Kinetics; conditions: ratio of KD for GDP-bound HRAS wild-type protein to KD for KRAS, SPR
Chain of GDP-bound HRAS wild-type protein (P01112 whole entry): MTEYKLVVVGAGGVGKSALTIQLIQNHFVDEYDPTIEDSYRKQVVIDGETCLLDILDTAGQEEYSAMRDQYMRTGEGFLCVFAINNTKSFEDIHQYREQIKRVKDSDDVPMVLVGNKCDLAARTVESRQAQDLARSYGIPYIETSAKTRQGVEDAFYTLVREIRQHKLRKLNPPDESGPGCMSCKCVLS

[4] = tested on: human lung cancer strain NCI-H441; test: cells; conditions: NCI-H441, 96 h, read-out: NCI-H441 IC50 (nM), NCI-H441 cell proliferation, 4 days, CellTiter-Glo;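 note: cell proliferation inhibition after four days measured by CellTiter-Glo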

SMILES | Kd [1] | IC50 [4] | NRAS/KRAS (KD ratio) [2] | HRAS/KRAS (KD ratio) [3]
CCC[C@H]1C(=O)N[C@@H]([C@@H](C)CC)C(=O)N[C@@H](C)C(=O)N(C)[C@H]2C/C=C\CCN(C2=O)[C@@H](Cc2ccc(C(F)(F)F)cc2)C(=O)N(C)CC(=O)N[C@@H](CCc2cc(F)c(C(F)(F)F)c(F)c2)C(=O)N2C[C@H](OCC)C[C@H]2C(=O)NC2(CC(C)(C)C2)C(=O)N(C)[C@@H](C2CCCC2)C(=O)N(C)[C@H](C(=O)N(C)C)CC(=O)N1C [PP1927] | 0.85 nM | 23.5 nM | A (a compound having 10 or more and less than 20 is denoted as A) | A (a compound having 10 or more and less than 20 is denoted as A)
CCCN1C(=O)CN(C)C(=O)CN(C)C(=O)[C@H]([C@@H](C)CC)NC(=O)[C@H](CC(C)C)N(C)C(=O)C[C@@H](C(=O)N2CCOCC2)N(C)C(=O)[C@H](C2CCCCC2)N(C)C(=O)C2(CCC2)NC(=O)[C@@H]2CCCN2C(=O)[C@H](CCc2ccc(C(F)(F)F)c(Cl)c2)NC(=O)CN(C)C(=O)[C@@H]1Cc1ccc(C(F)(F)F)cc1 [PP1928] ([NMeL]I[Sar][Sar][NPrPhe(4-CF3)][Sar][hPhe(3-Cl-4-CF3)]P[Ac4c][NMeChg][NMeD]-Morpholide; lactam N-11) | 0.25 nM | 18.4 nM | B (a compound having 3 or more and less than 10 is denoted as B) | B (a compound having 3 or more and less than 10 is denoted as B)
CCCN1C(=O)CN(C)C(=O)CN(C)C(=O)[C@H]([C@@H](C)CC)NC(=O)[C@H](CC(C)C)N(C)C(=O)C[C@@H](C(=O)N2CCCCC2)N(C)C(=O)[C@H](C2CCCC2)N(C)C(=O)C2(CCC2)NC(=O)[C@@H]2CCCN2C(=O)[C@H](CCc2ccc(C(F)(F)F)c(Cl)c2)NC(=O)CN(C)C(=O)[C@@H]1Cc1ccc(C(F)(F)F)cc1 [PP1930] ([NMeL]I[Sar][Sar][NPrPhe(4-CF3)][Sar][hPhe(3-Cl-4-CF3)]P[Ac4c][NMeGly(cPent)][NMeD]-Piperidide; lactam N-11) | 0.23 nM | 7 nM | B (a compound having 3 or more and less than 10 is denoted as B) | C (A compound having a KD ratio of 0.1 or more and less than 3 is denoted as C)
CCO[C@@H]1C[C@H]2C(=O)NC3(CC(C)(C)C3)C(=O)N(C)[C@@H](C3CCCC3)C(=O)N(C)[C@H](C(=O)N(C)C)CC(=O)N(C)[C@@H](CC(C)C)C(=O)N[C@@H]([C@@H](C)CC)C(=O)N(C)CC(=O)N(C)[C@H]3C/C=C\CCN(C3=O)[C@@H](Cc3ccc(C(F)(F)F)cc3)C(=O)N(C)CC(=O)N[C@@H](CCc3ccc(C(F)(F)F)c(F)c3)C(=O)N2C1 [PP1931] | 0.12 nM | 9.5 nM | A (a compound having 10 or more and less than 20 is denoted as A) | B (a compound having 3 or more and less than 10 is denoted as B)
CCC[C@H]1C(=O)N[C@@H]([C@@H](C)CC)C(=O)N(C)CC(=O)N(C)[C@H]2C/C=C\CCN(C2=O)[C@@H](Cc2ccc(C(F)(F)F)cc2)C(=O)N(C)CC(=O)N[C@@H](CCc2ccc(Cl)c(Cl)c2)C(=O)N2C[C@H](OCC)C[C@H]2C(=O)NC2(CC(C)(C)C2)C(=O)N(C)[C@@H](C2CCCC2)C(=O)N(C)[C@H](C(=O)N(C)C)CC(=O)N1C [PP1932] | 0.15 nM | 13.1 nM | A (a compound having 10 or more and less than 20 is denoted as A) | A (a compound having 10 or more and less than 20 is denoted as A)
CCC[C@H]1C(=O)N[C@@H]([C@@H](C)CC)C(=O)N(C)CC(=O)N(C)[C@H]2C/C=C\CCN(C2=O)[C@@H](Cc2ccc(C(F)(F)F)cc2)C(=O)N(C)CC(=O)N[C@@H](CCc2cc(F)c(C(F)(F)F)c(F)c2)C(=O)N(C)[C@@H](C)C(=O)NC2(CC(C)(C)C2)C(=O)N(C)[C@@H](C2CCCC2)C(=O)N(C)[C@H](C(=O)N(C)C)CC(=O)N1C [PP1934] | 0.72 nM | 68.5 nM | A (a compound having 10 or more and less than 20 is denoted as A) | A (a compound having 10 or more and less than 20 is denoted as A)
CC[C@H](C)[C@@H]1NC(=O)[C@H](CC)N(C)C(=O)C[C@@H](C(=O)N(C)C)N(C)C(=O)[C@H](C2CCCC2)N(C)C(=O)C2(CC(C)(C)C2)NC(=O)[C@H](CC)N(C)C(=O)[C@H](CCc2cc(F)c(C(F)(F)F)c(F)c2)NC(=O)CN(C)C(=O)[C@H](Cc2ccc(C(F)(F)F)cc2)N2CC/C=C\C[C@@H](C2=O)N(C)C(=O)CN(C)C1=O [PP1935] | 0.46 nM | 13.1 nM | A (a compound having 10 or more and less than 20 is denoted as A) | A (a compound having 10 or more and less than 20 is denoted as A)
CCC[C@H]1C(=O)N[C@@H]([C@@H](C)CC)C(=O)N(C)CC(=O)N(C)[C@H]2C/C=C\CCN(C2=O)[C@@H](Cc2ccc(C(F)(F)F)cc2)C(=O)N(C)CC(=O)N[C@@H](CCc2cc(F)c(C(F)(F)F)c(F)c2)C(=O)N(C)[C@@H](COC)C(=O)NC2(CC(C)(C)C2)C(=O)N(C)[C@@H](C2CCCC2)C(=O)N(C)[C@H](C(=O)N(C)C)CC(=O)N1C [PP1936] | 0.4 nM | 12.3 nM | AA (a compound having 20 or more is denoted as AA) | A (a compound having 10 or more and less than 20 is denoted as A)
CCO[C@@H]1C[C@H]2C(=O)NC3(CC(C)(C)C3)C(=O)N(C)[C@@H](C3CCCC3)C(=O)N(C)[C@H](C(=O)N3CCCCC3)CC(=O)N(C)[C@@H](CC)C(=O)N[C@@H]([C@@H](C)CC)C(=O)N(C)CC(=O)N(C)[C@H]3C/C=C\CCN(C3=O)[C@@H](Cc3ccc(C(F)(F)F)cc3)C(=O)N(C)CC(=O)N[C@@H](CCc3cc(F)c(C(F)(F)F)c(F)c3)C(=O)N2C1 [PP1945] | 0.31 nM | 33.8 nM | AA (a compound having 20 or more is denoted as AA) | A (a compound having 10 or more and less than 20 is denoted as A)

Continued, in another order:

Kd [1] | IC50 [4] | SMILES | NRAS/KRAS (KD ratio) [2] | HRAS/KRAS (KD ratio) [3]
0.17 nM | 9.2 nM | CCC[C@H]1C(=O)N[C@@H]([C@@H](C)CC)C(=O)N(C)CC(=O)N(C)[C@H]2C/C=C\CCN(C2=O)[C@@H](Cc2ccc(C(F)(F)F)cc2)C(=O)N(C)CC(=O)N[C@@H](CCc2cc(F)c(C(F)(F)F)c(F)c2)C(=O)N2C[C@H](OCC)C[C@H]2C(=O)NC2(CC(C)(C)C2)C(=O)N(C)[C@@H]([C@@H](C)CC)C(=O)N(C)[C@H](C(=O)N(C)C)CC(=O)N1C [PP1941] | A (a compound having 10 or more and less than 20 is denoted as A) | A (a compound having 10 or more and less than 20 is denoted as A)
0.15 nM | 25.7 nM | CCO[C@@H]1C[C@H]2C(=O)NC3(CC(C)(C)C3)C(=O)N(C)[C@@H](C3CCCCC3)C(=O)N(C)[C@H](C(=O)N(C)C)CC(=O)N(C)[C@@H](CC)C(=O)N[C@@H]([C@@H](C)CC)C(=O)N(C)CC(=O)N(C)[C@H]3C/C=C\CCN(C3=O)[C@@H](Cc3ccc(C(F)(F)F)cc3)C(=O)N(C)CC(=O)N[C@@H](CCc3cc(F)c(C(F)(F)F)c(F)c3)C(=O)N2C1 [PP1942] | AA (a compound having 20 or more is denoted as AA) | A (a compound having 10 or more and less than 20 is denoted as A)
0.11 nM | 9.2 nM | CCC[C@H]1C(=O)N[C@@H]([C@@H](C)CC)C(=O)N(C)CC(=O)N(C)[C@H]2C/C=C\CCN(C2=O)[C@@H](Cc2ccc(C(F)(F)F)cc2)C(=O)N(C)CC(=O)N[C@@H](CCc2cc(F)c(C(F)(F)F)c(F)c2)C(=O)N2C[C@H](OCC)C[C@H]2C(=O)NC2(CC(C)(C)C2)C(=O)N(C)[C@@H](C2CCCC2)C(=O)N(C)[C@H](C(=O)N2CCC2)CC(=O)N1C [PP1943] | A (a compound having 10 or more and less than 20 is denoted as A) | B (a compound having 3 or more and less than 10 is denoted as B)
0.19 nM | 14.8 nM | CCO[C@@H]1C[C@H]2C(=O)NC3(CC(C)(C)C3)C(=O)N(C)[C@@H](C3CCCC3)C(=O)N(C)[C@H](C(=O)N3CCCC3)CC(=O)N(C)[C@@H](CC)C(=O)N[C@@H]([C@@H](C)CC)C(=O)N(C)CC(=O)N(C)[C@H]3C/C=C\CCN(C3=O)[C@@H](Cc3ccc(C(F)(F)F)cc3)C(=O)N(C)CC(=O)N[C@@H](CCc3cc(F)c(C(F)(F)F)c(F)c3)C(=O)N2C1 [PP1944] | A (a compound having 10 or more and less than 20 is denoted as A) | A (a compound having 10 or more and less than 20 is denoted as A)
0.16 nM | 15.2 nM | CCCN1C(=O)CN(C)C(=O)CN(C)C(=O)[C@H]([C@@H](C)CC)NC(=O)[C@H](CC(C)C)N(CC)C(=O)C[C@@H](C(=O)N2CCOCC2)N(C)C(=O)[C@H](C2CCCC2)N(C)C(=O)C2(CCC2)NC(=O)[C@@H]2CCCN2C(=O)[C@H](CCc2ccc(C(F)(F)F)c(Cl)c2)NC(=O)CN(C)C(=O)[C@@H]1Cc1ccc(C(F)(F)F)cc1 [PP1946] ([NEtLeu]I[Sar][Sar][NPrPhe(4-CF3)][Sar][hPhe(3-Cl-4-CF3)]P[Ac4c][NMeGly(cPent)][NMeD]-Morpholide; lactam N-11) | B (a compound having 3 or more and less than 10 is denoted as B) | C (A compound having a KD ratio of 0.1 or more and less than 3 is denoted as C)
